Results taken from paper PMC5571211 (Scientific Reports, 2017).
Each block holds one molecule with its values, some of them ahead of it.

Tests used:
human recombinant LTA4-H = target: T1, human recombinant LTA4-H (Homo sapiens, UniProt P09960); test: LTA4 hydrolase activity, co-incubation of isolated 5-LOX and LTA4-H; assay type: biochemical; details: diflapolin up to 10 µM, AUDA 10 µM, SC57461A 0.3 µM, zileuton 3 µM
T1 construct: gift of Dr. E. Proschak, Goethe University, Frankfurt
T1 sequence (P09960 2-611 limits assumed): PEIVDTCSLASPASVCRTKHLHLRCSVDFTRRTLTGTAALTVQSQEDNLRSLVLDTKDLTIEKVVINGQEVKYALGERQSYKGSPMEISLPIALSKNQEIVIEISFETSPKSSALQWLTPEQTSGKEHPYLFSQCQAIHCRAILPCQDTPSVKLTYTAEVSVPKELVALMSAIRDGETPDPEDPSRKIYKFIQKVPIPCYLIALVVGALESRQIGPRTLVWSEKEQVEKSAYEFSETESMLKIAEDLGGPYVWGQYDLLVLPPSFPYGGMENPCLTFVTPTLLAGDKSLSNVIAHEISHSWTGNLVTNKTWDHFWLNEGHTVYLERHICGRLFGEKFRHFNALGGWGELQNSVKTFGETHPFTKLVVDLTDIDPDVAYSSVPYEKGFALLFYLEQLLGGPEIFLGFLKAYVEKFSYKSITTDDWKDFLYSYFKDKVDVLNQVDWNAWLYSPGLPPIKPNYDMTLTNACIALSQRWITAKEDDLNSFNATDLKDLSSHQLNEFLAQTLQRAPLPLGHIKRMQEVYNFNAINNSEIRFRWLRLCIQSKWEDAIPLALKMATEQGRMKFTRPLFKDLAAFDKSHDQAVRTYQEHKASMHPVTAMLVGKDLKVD
Procedure: In order to determine the activity of LTA4-H, aliquots of human recombinant 5-LOX (0.5 µg) and 10 µg of human recombinant LTA4-H (kindly provided by Dr. E. Proschak, Goethe University, Frankfurt, Germany) were suspended in 1 mL PBS containing 1 mM EDTA and pre-incubated with test compounds or vehicle (0.1% DMSO) for 10 min on ice. The specific LTA4-H inhibitor SC57461A (0.3 µM) was used as reference drug. Subsequently, incubations were stimulated with 20 µM AA and 2 mM CaCl2 for additional 10 min at 37 °C. The reaction was stopped by 1 volume ice-cold methanol, 530 µL acidified PBS and 200 ng of PGB1 as internal standard were added and subjected to solid phase extraction. All LTB4 isomers were analyzed by HPLC as described above.

monocytes = test: Acute cytotoxicity, MTT assay in monocytes; assay type: cell-based, human; details: 24 or 48 hrs; diflapolin 10 µM, staurosporine 3 µM
Procedure: Acute cytotoxicity of the compounds was determined using freshly isolated monocytes. Cells (0.2 × 10^6) per sample were seeded in 100 µL buffer on 96-well plates and treated with the test compounds and appropriate controls for 24 or 48 hrs (37 °C, 5% CO2). After addition of MTT (5 mg/mL) for 2 h (37 °C, 5% CO2), cells were lysed by SDS treatment (10%, pH 4.5) for 16–20 hrs and formazan formation was determined by measurement of absorbance at 570 nm.

sEH in HepG2 cells = target: T2, sEH in HepG2 cells (Homo sapiens, UniProt P34913); test: 14,15-DiHETrE formation in HepG2 cells (cell-based sEH assay)
T2 construct: sEH is constitutively expressed in the human liver cancer cell line HepG2; endogenous in cells; host or cells: HepG2
T2 sequence (P34913 1-555): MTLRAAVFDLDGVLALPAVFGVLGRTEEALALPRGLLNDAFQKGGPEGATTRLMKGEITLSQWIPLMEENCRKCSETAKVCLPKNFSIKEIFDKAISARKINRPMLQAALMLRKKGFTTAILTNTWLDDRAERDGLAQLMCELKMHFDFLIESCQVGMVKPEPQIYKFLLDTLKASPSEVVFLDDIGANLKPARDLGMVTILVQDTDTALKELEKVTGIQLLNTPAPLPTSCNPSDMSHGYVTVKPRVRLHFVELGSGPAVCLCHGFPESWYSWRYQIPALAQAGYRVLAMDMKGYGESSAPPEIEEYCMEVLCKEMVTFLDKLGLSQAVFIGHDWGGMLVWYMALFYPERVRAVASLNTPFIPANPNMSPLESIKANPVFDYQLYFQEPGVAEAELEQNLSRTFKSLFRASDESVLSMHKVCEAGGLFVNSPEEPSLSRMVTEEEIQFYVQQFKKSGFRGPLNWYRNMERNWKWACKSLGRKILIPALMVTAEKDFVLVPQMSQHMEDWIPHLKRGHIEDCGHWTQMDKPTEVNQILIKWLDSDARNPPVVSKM
Procedure: To assay the activity of sEH in a cell-based model, HepG2 cells were harvested by trypsinization, pelleted (1,200 rpm, 5 min, 4 °C) and resuspended in PGC buffer to a final concentration of 1.5 × 10^6 cells/mL. […] Briefly, samples were acidified with four volumes of MilliQ water pH 3.5 containing PBS-HCl and subjected to Waters Sep-Pak® Vac 6cc columns (Waters, Milford, MA, USA), washed once with MilliQ and hexane, and eluted with methylformiate. The nitrogen-dried samples were dissolved in 50% methanol, and 14,15-DiHETrE formation was measured by UPLC-MS/MS using an Acquity™ UPLC system (Waters, Milford, MA, USA) and a QTRAP 5500 Mass Spectrometer (ABSciex, Darmstadt, Germany) equipped with a Turbo V™ Source and electrospray ionization (ESI). […] Ion spray voltage was set to 4000 V, the heater temperature to 500 °C, the declustering potential to 50–80 eV, the entrance potential to 10 eV, the collision cell exit potential to 10–13 eV, collision energies of 10 eV, the spray gas pressure to 40 psi, medium collision gas and the curtain gas pressure to 35 psi.

recombinant LTA4-H = system: recombinant LTA4-H; parameters: method as in PMID 11805219; details: read-out: IC50 against recombinant LTA4-H; cited from earlier work
[1] = system: AA release (cPLA2) in neutrophils; test: [3H]-labeled arachidonic acid release in neutrophils; assay type: cell-based, human; details: [3H]AA-pre-labelled neutrophils; diflapolin 1 µM, RSC-3388 10 µM
Procedure: Freshly isolated human neutrophils were resuspended in RPMI 1640 medium to a final cell density of 10^7 cells/mL and incubated with 0.5 µCi/mL of [^3H]-labeled arachidonic acid ([^3H]-AA), corresponding to a concentration of 5 nM of the fatty acid, for 2 hrs (37 °C, 5% CO2). Cells were washed twice to remove unincorporated [^3H]-AA and resuspended in PBS containing glucose (0.1%), fatty acid-free BSA (2 mg/mL) and CaCl2 (1 mM). […] The reaction was stopped on ice and cells were centrifuged at 1,200 rpm (10 min, 4 °C). The collected supernatants were combined with 2 mL of liquid scintillation counting solution (Rotiszint eco plus, Carl Roth, Karlsruhe, Germany) and assayed for radioactivity by scintillation counting (Micro Beta Trilux, Perkin Elmer, Waltham, MA).

[2] = target: T3, co-localization of 5-LOX with FLAP (Homo sapiens, UniProt P20292); test: Immunofluorescence microscopy of 5-LOX subcellular redistribution / co-localization with FLAP; assay type: cell-based; details: human neutrophils or monocytes; diflapolin 1 µM, MK886 0.3 µM, zileuton 3 µM
T3 construct: endogenous in cells; host or cells: freshly isolated human monocytes (immunofluorescence also in neutrophils)
T3 sequence (P20292 1-161): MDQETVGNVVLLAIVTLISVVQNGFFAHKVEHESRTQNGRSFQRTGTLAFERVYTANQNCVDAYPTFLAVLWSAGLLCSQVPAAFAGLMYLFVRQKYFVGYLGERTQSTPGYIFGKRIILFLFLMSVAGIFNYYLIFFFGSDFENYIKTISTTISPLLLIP
Procedure: The incubations were stopped by paraformaldehyde fixation (4%, 20 min, RT) and cells were permeabilized using 100% ice-cold acetone (5 min, 4 °C). Blocking with non-immune goat serum (30 min, RT) was performed prior to overnight incubation (4 °C) with primary monoclonal-mouse-anti-5-LOX antibody (1:100 dilution, a generous gift from Dr. D. Steinhilber, Goethe University Frankfurt, Germany) and polyclonal-rabbit-anti-FLAP antibody (5 µg/mL, Abcam, Cambridge, UK). […] Cells were visualized by a Zeiss Axiovert 200 M microscope, and a Plan Neofluar × 100/1.30 Oil (DIC III) objective (Carl Zeiss, Jena, Germany) and image acquisition was performed using an AxioCam MR camera (Carl Zeiss).

5-LOX/FLAP complex = target: T4, 5-LOX/FLAP complex (Homo sapiens, UniProt P20292); test: Proximity ligation assay of 5-LOX/FLAP complex assembly in monocytes; assay type: cell-based; details: diflapolin 1 µM, MK886 0.3 µM, zileuton 3 µM
T4 construct: endogenous in cells; host or cells: freshly isolated human monocytes (immunofluorescence also in neutrophils)
T4 sequence (P20292 1-161): T3 sequence (P20292 1-161)
Procedure: In situ protein interaction of 5-LOX and FLAP was analyzed by proximity ligation assay as described before[37] and referring to the manufacturer’s protocol. In brief, freshly isolated monocytes were treated as described for IF above. Overnight incubations with primary antibodies were then treated for 1 h (37 °C) with oligonucleotide-labeled specific secondary antibodies (PLA probes anti-mouse MINUS and anti-rabbit PLUS). Formation of circled DNA sequences was induced by addition of ligase and oligonucleotide mixture (30 min at 37 °C). Rolling-circle-amplification of newly generated DNA template was performed (90 min, 37 °C) including hybridization of fluorescently-labeled oligonucleotides within the formed DNA strands, resulting in visualization of protein-protein interactions recognized as magenta-stained dots. Nuclear DNA staining with DAPI and image acquisition was performed as described above. Overview images were obtained using a Plan Neofluar 40/1.30 Oil (DIC III) objective (Carl Zeiss).

[3] = system: 5-LOX activity in monocytes, neutrophils; test: cells; details: Homo sapiens, read-out: IC50 5-LOX activity in cell-based assays
Procedure: In order to examine 5-LOX product formation in intact human neutrophils and monocytes, freshly isolated cells were resuspended in PBS buffer containing 0.1% glucose and 1 mM CaCl2 (PGC buffer) to a final cell density of 5 × 10^6 or 2 × 10^6, respectively. […] 5-LOX product formation was stopped by addition of one volume of ice-cold methanol, samples were subjected to solid phase extraction after addition of 200 ng PGB1 as internal standard and 5-LOX products were analyzed by RP-HPLC as described above.

effect on LTA4-H activity (LTB4 formation) (human recombinant LTA4-H): showed the same pattern as diflapolin
SMILES: O=C(O)CCCCCCCCCCCNC(=O)NC12CC3CC(CC(C3)C1)C2 [AUDA]

SMILES: CN[C@@H]1C[C@H]2O[C@@](C)([C@@H]1OC)n1c3ccccc3c3c4c(c5c6ccccc6n2c5c31)C(=O)NC4 [staurosporine]
viability of monocytes, MTT assay (monocytes): strongly impaired cell viability

SMILES: CN(CCCOc1ccc(Cc2ccccc2)cc1)CCC(=O)O.Cl [SC57461A, 3-[methyl[3-[4-(phenylmethyl)phenoxy]propyl]amino]propanoic acid HCl]
effect on sEH in the cell-based sEH assay (sEH in HepG2 cells): no impact | effect on LTA4-H activity (LTB4 formation) (human recombinant LTA4-H): blocked LTB4 biosynthesis | IC50 (recombinant LTA4-H): 100 nM

SMILES: CC(C)CN(Cc1ccccc1-c1ccccc1)[C@@H]1C[C@@H](CNC(=O)/C=C/c2ccc(/C=C3\SC(=O)NC3=O)cc2)N(C(=O)c2ccccc2C(=O)c2ccc(F)cc2F)C1 [RSC-3388]
release of AA upon A23187-stimulation [1]: suppressed AA liberation

SMILES: CC(c1cc2ccccc2s1)N(O)C(N)=O (stereo not shown) [zileuton]
effect on LTA4-H activity (LTB4 formation) (human recombinant LTA4-H): reduced the formation of all LTB4 isomers | co-localization of 5-LOX with FLAP [2]: neither diflapolin nor the FLAP inhibitor MK886 or the 5-LOX inhibitor zileuton prevented co-localization | 5-LOX/FLAP complex assembly (PLA) (5-LOX/FLAP complex): failed | IC50 [3]: 1500 nM
